Experimental data published in PMC9791135, “A penetratin-derived peptide reduces the membrane permeabilization and cell toxicity of α-synuclein oligomers” (The Journal of Biological Chemistry, 2022).
Where a SMILES comes first, the peptide text is derived from it.

How the values were obtained:
Format in all cases: biochemical
[1] = molecular target: T1, α-syn (Homo sapiens, UniProt P37840); experiment: Far-UV CD of fibrillated α-syn–peptide samples; settings: fibrillated samples after washing, signal at 218 nm; versus α-syn alone
T1 construct: made in house; host or cells: Escherichia coli BL21 (DE3), plasmid pET11-D
Excerpt: (§1) To analyze the secondary structure of the final aggregates, we recorded far-UV CD and attenuated total reflectance (ATR)–FTIR spectra for fibrillated samples after washing to remove free α-syn and peptides. […] Overall, as the concentration of peptides increases, the intensity of signal at 218 nm decreases (Fig. 4A). We observed that α-syn fibrils formed in the presence of p194, p222, p235, and p249 precipitated rapidly after mixing with these peptides. This likely gives rise to light scattering, which reduces CD signals. To overcome these artifacts, we turned to ATR–FTIR spectroscopy, which is not sensitive to scattering. […] Both far-UV CD and ATR–FTIR spectroscopy confirm extensive β-sheet structure. However, in the presence of peptides, some structural changes were observed as reflected by the decrease in the amyloid cross β-sheet structure at ∼1629 cm^−1 and increases in the random and coil structures (∼1656 and ∼1676 cm^−1, respectively) (Table 2). […] Taking all together, ATR–FTIR data are in reasonable agreement with far-UV CD.
To remove free α-syn and peptides, fibrillated samples were centrifuged (13,000 rpm, 15 min). This leaves monomeric α-syn plus unbound and free peptides in the supernatant. The supernatant was discarded, and the pellet was washed two times in the same volume of PBS buffer, pH 7.4, to ensure complete removal of monomeric α-syn and free peptides. Far-UV CD spectra were recorded at 25 °C on a Chirascan CD Spectrophotometer (Applied Photophysics) using a 0.1 mm quartz cuvette in the wavelength range of 200 to 260 nm with 1 nm bandwidth and three accumulations. The buffer spectrum was subtracted, and the results were expressed as mean residue ellipticity [θ] (deg cm^2 dmol^−1).

[2] = molecular target: T2, αSOs (Homo sapiens, UniProt P37840); experiment: Calcein release assay, αSOs together with peptides; settings: for Effect on vesicle permeabilization by αSOs: αSOs at calcein^50% (5.2 μg/ml)
T2 construct: made in house; host or cells: Escherichia coli BL21 (DE3); oligomers formed by shaking the monomer and isolated by SEC (Superose 6)
Procedure: αSOs show cytotoxic properties, which have been attributed to their membrane-disrupting ability ([69]). To examine the effect of peptides on membrane permeabilization by αSOs, we used a simple calcein release assay. αSOs, peptides, and aSO–peptide mixtures at 10^−6 to 10^−1 mg/ml peptide were added to calcein-loaded DOPG vesicle, and the extent of calcein release was monitored for 30 min by the increase in fluorescence as calcein leaks out upon membrane permeabilization, leading to dilution and the loss of self-quenching. The time-dependent calcein release data from DOPG vesicles ([70], [71]) in the presence of peptides, αSOs, and αSO–peptides are shown in Figs. S9 and S10. In order to allow easy comparison of all peptides, the calcein release versus concentration (peptides and αSOs) were plotted at the plateau point of release (Fig. 5, A–C). […] Figure 5D compares calcein release percentages of data represented in Figure 5, A and B at peptide concentrations between 0.001 and 0.1 mg/ml, where we see the largest extent of calcein release in general.
Calcein-filled vesicles of DOPG were prepared as described before ([38]). Briefly, DOPG was dissolved in PBS to […], in the presence of calcein at self-quenching concentrations (70 mM) and subjected to 10 freeze–thaw cycles between liquid nitrogen and a 50 °C water bath. After 21 times extrusion through a 100 nm filter, free calcein was separated from vesicles with a PD-10 desalting column (GE Healthcare). Vesicles were stored at 4 °C and used for calcein release assays within 24 h.
Calcein release was measured by mixing peptides and/or αSOs at a final concentration of 10^−6 to 10^−1 mg/ml and 5.2 μg/ml, respectively, in 148 μl with 2 μl of calcein vesicles, and were then loaded onto a 96-well plate (Nunc, Thermo Fischer Scientific) in triplicate. The plate was sealed with Crystal clear sealing tape (Hampton Research), and fluorescence was measured (excitation: 485 nm and emission: 520 nm) for 1 h at 37 °C every 2 min with a 2 s autoshake before each reading on a fluorescence plate reader (Tecan). Finally, 2 μl Triton X-100 (0.2% [v/v]) was added to lyse vesicles, and the maximal fluorescence signal was measured for 20 min under the same reading condition. Background fluorescence was subtracted, and the average signal of calcein release before addition of Triton X-100 (F), after treatment with Triton X-100 (Ft) and for the buffer control (F0) were determined, and calcein release percentage was calculated as follow (Equation 1):(1) CalceinRelease%(CR%)=(F−F0)/(Ft−F0)

[3] = molecular target: T1, α-syn; experiment: TEM of α-syn aggregates formed with peptides; settings: for Morphology of α-syn aggregates (TEM), in words: α-syn incubated in the presence of peptide; for Morphology (TEM): α-syn aggregates after incubation with peptide, versus α-syn alone
Procedure: Five microliters of each fibril-containing solution were applied to 400-mesh carbon-coated and glow-discharged nickel grids for 30 s, and blotted with filter paper to remove excess sample. The grids were washed with one drop of double distilled water and then stained with 3 μl of 1% uranyl formate for 15 s. Excess stain was removed by blotting paper This step was repeated two more times. Finally, the grids were left to air dry and viewed on a Tecnai G2 Spirit (FEI Company) operating at 60 kV, and images were taken using a TemCam F416 camera (TVIPS).

[4] = molecular target: T1, α-syn; experiment: ATR–FTIR of fibrillated α-syn–peptide samples; settings: for ATR–FTIR (amyloid structures): fibrillated samples after washing, versus α-syn alone; for Amount of amyloid structures (ATR–FTIR), in words: fibrillated α-syn samples in the presence of peptides
Excerpt: as §1
The samples prepared in the CD section were also used to measure FTIR spectra on a Tensor 27 FTIR spectrophotometer (Bruker). About 2 μl α-syn fibrils were dried on the ATR crystal with a gentle stream of nitrogen gas. Spectra were accumulations of 68 scans in the 4000 to 1000 cm^−1 range. Baseline correlation, second derivative, and atmospheric compensation were performed with OPUS 5.5 software (Bruker, Germany). Signals in the amide I region (∼1550–1700 cm^−1) were smoothed and deconvoluted with PeakFit, version 4.12 software (ِSystat Software Inc) using Lorentzian fitting.

Compound | Far-UV CD (β-sheet structures) [1] | Reduction of αSO-induced membrane permeability ([2]; calcein-filled DOPG LUVs, peptide concentration not stated at the place) [%] | Morphology of α-syn aggregates (TEM), in words [3] | ATR–FTIR (amyloid structures) [4] | Amount of amyloid structures (ATR–FTIR), in words [4] | Effect on vesicle permeabilization by αSOs ([2]; peptide 10^−6 to 10^−1 mg/ml) | Morphology (TEM) [3] | Effect on vesicle permeabilization by αSOs ([2]; peptide 0.01 and 0.1 mg/ml)
CC[C@H](C)[C@H](NC(=O)[C@H](Cc1ccccc1)NC(=O)[C@H](Cc1c[nH]c2ccccc12)NC(=O)[C@H](CCCNC(=N)N)NC(=O)[C@H](CC(N)=O)NC(=O)[C@@H](NC(=O)[C@H](CCC(N)=O)NC(=O)[C@H](CCCCN)NC(=O)[C@@H](N)CCSC)[C@@H](C)CC)C(=O)N[C@@H](CCCNC(=N)N)C(=O)N[C@@H](Cc1c[nH]c2ccccc12)C(=O)N[C@@H](CCC(N)=O)C(=O)N[C@@H](CCCCN)C(=O)N[C@@H](CCCCN)C(=O)N[C@@H](CCCNC(=N)N)C(=O)N[C@@H](CCCCN)C(=O)O [p249] (H-MKQINRWFIRWQKKRK-OH; N-terminus and C-terminus assumed) | ↓↓↓β | 62 | nonfibrillar (amorphous) accumulations | ↓↓↓ amyl | decreased |  |  | 
CC[C@H](C)[C@H](NC(=O)[C@H](Cc1c[nH]c2ccccc12)NC(=O)[C@H](CCCNC(=N)N)NC(=O)[C@H](Cc1c[nH]c2ccccc12)NC(=O)[C@H](CCCCN)NC(=O)[C@@H](NC(=O)[C@H](CCCCN)NC(=O)[C@H](CCC(N)=O)NC(=O)[C@@H](N)CC(N)=O)[C@@H](C)CC)C(=O)N[C@@H](CCC(N)=O)C(=O)N[C@@H](CCCNC(=N)N)C(=O)N[C@@H](Cc1ccccc1)C(=O)N[C@@H](CCCNC(=N)N)C(=O)N[C@@H](CCCCN)C(=O)N[C@@H](CCCCN)C(=O)N[C@@H](CCSC)C(=O)O [p235] (H-NQKIKWRWIQRFRKKM-OH; N-terminus and C-terminus assumed) | ↓↓↓β |  | nonfibrillar (amorphous) accumulations | ↓↓↓ amyl | decreased |  |  | 
CC(C)C[C@H](NC(=O)[C@H](Cc1c[nH]cn1)NC(=O)[C@H](CO)NC(=O)[C@H](CO)NC(=O)[C@H](C)NC(=O)[C@@H](N)CO)C(=O)N[C@@H](Cc1c[nH]cn1)C(=O)N[C@@H](Cc1c[nH]cn1)C(=O)NCC(=O)N[C@@H](Cc1c[nH]cn1)C(=O)N[C@@H](CO)C(=O)NCC(=O)NCC(=O)O [p168] (H-SASSHLHHGHSGG-OH) | ↓↓β |  | longer and thinner fibrils |  | did not show significant changes in FTIR spectra | failed to affect vesicle permeabilization by αSOs | L, T, I | 
RQIKIWFQNRRFKWKK [p222, penetratin with modulated hydrophobicity] | ↓↓↓β |  | needle-shaped and short fibrils | ↓↓ amyl | decreased |  | S, N | increased vesicle permeabilization by αSOs
